The first experiment addresses T1, biotin-tagged CRD4 (carbohydrate-recognition domain 4 of the mannose receptor, CD206) (Homo sapiens, UniProt P22897).
T1 construct: gene MRC1; borders from residues reported in crystals
T1 sequence (P22897 646-779): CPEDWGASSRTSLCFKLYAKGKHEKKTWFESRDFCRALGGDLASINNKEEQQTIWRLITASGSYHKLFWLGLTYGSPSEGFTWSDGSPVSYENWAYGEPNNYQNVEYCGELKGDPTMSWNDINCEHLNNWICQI
Description: solid-phase competition with horseradish peroxidase, CRD4 immobilised on streptavidin plates. Type of experiment: binding.
Settings: not given
An excerpt: solid-phase competition with horseradish peroxidase, CRD4 immobilised on streptavidin plates on biotin-tagged CRD4 (carbohydrate-recognition domain 4 of the mannose receptor, CD206)
For `CO[C@H]1O[C@H](CO)[C@@H](O)[C@H](O)[C@@H]1O` [α-Methyl mannose], the Ki (usually a measure of affinity in units of concentration, obtained from inhibition or displacement) was found to be 900 ± 100 µM.
Take `CO[C@@H]1O[C@@H](C)[C@@H](O)[C@@H](O)[C@@H]1O` [αMeFuc]: affinity was put at a Ki of 110 ± 20 µM.

The experiment is the same for the next values; noted with them: competitive; 2.5 mM CaCl2, 150 mM NaCl, 25 mM Tris-Cl pH 7.8, 4 °C.
In the case of `CC(=O)N[C@H]1[C@H](O[C@H]2[C@H](O)[C@@H](NC(C)=O)C(O)O[C@@H]2CO)O[C@H](CO)[C@@H](O[C@@H]2O[C@H](CO[C@H]3O[C@H](CO[C@H]4O[C@H](CO)[C@@H](O)[C@H](O)[C@@H]4O[C@H]4O[C@H](CO)[C@@H](O)[C@H](O)[C@@H]4O)[C@@H](O)[C@H](O[C@H]4O[C@H](CO)[C@@H](O)[C@H](O)[C@@H]4O[C@H]4O[C@H](CO)[C@@H](O)[C@H](O)[C@@H]4O)[C@@H]3O)[C@@H](O)[C@H](O[C@H]3O[C@H](CO)[C@@H](O)[C@H](O)[C@@H]3O[C@H]3O[C@H](CO)[C@@H](O)[C@H](O)[C@@H]3O[C@H]3O[C@H](CO)[C@@H](O)[C@H](O)[C@@H]3O)[C@@H]2O)[C@@H]1O` (some centres unmarked) [Man9], the affinity, expressed as Ki, was 23 ± 0.4 µM.
`OC[C@H]1O[C@H](O[C@@H]2C(O)O[C@H](CO)[C@@H](O)[C@@H]2O)[C@@H](O)[C@@H](O)[C@@H]1O` (some centres unmarked) [Manα1-2Man]: the affinity, expressed as Ki, was 480 ± 40 µM.
Compound `OC[C@H]1O[C@H](O[C@H]2[C@H](O)[C@@H](CO)OC(O)[C@H]2O)[C@@H](O)[C@@H](O)[C@@H]1O` (some centres unmarked) [Manα1-3Man] yielded a Ki of 860 ± 50 µM.
`OC[C@H]1O[C@H](O[C@H]2[C@H](O)[C@H](O)C(O)O[C@@H]2CO)[C@@H](O)[C@@H](O)[C@@H]1O` (some centres unmarked) [Manα1-4Man] had a Ki of 730 ± 70 µM.
Compound `OC[C@H]1O[C@H](OC[C@H]2OC(O)[C@@H](O)[C@@H](O[C@H]3O[C@H](CO)[C@@H](O)[C@H](O)[C@@H]3O)[C@@H]2O)[C@@H](O)[C@@H](O)[C@@H]1O` (some centres unmarked) [Manα1-6(Manα1-3)Man] showed a Ki of 300 ± 80 µM.
`OC[C@H]1O[C@H](OC[C@H]2OC(O)[C@@H](O)[C@@H](O)[C@@H]2O)[C@@H](O)[C@@H](O)[C@@H]1O` (some centres unmarked) [Manα1-6Man] yielded a Ki of 380 ± 30 µM.
